# In PubChem BioAssay AID248 (DTP/NCI, 2004):
# Values joined by “and” are separate entries in the source; they are usually repeats but may differ in a detail not shown here. Equal entries are not always repeated. Inconclusive results and toxic doses are left out.
# Tested on: L1210 leukemia ip in BDF1 mice, survival T/C
# Test: NCI In Vivo Anticancer Drug Screen. Data for tumor model L1210 Leukemia (intraperitoneal) in B6D2F1 (BDF1) mice
# Conditions: endpoint: mean survival time, higher = longer survival
# In short: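 Ratio derived from survival: compound-dosed mice over vehicle-dosed mice, all bearing a transplantable tumor.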
smiles,measurement,setting,value
O=C(NP(=O)(N1CC1)N1CC1)c1cc(I)ccc1I,T/C,"dose: 1.0 mg/kg/injection, schedule: Q01DX001 (ip), vehicle: saline with Tween-80",99 % of control
same,T/C,"dose: 1.0 mg/kg/injection, schedule: Q01DX001 (ip), vehicle: saline",95 % of control and 98 % of control
same,T/C,"dose: 1.0 mg/kg/injection, schedule: Q01DX001 (oral), vehicle: saline with Tween-80",106 % of control
same,T/C,"dose: 1.0 mg/kg/injection, schedule: Q01DX001 (oral), vehicle: saline",97 % of control
same,T/C,"dose: 1.0 mg/kg/injection, schedule: Q01DX009 (ip), vehicle: saline with Tween-80",103 % of control
same,T/C,"dose: 1.0 mg/kg/injection, schedule: Q01DX009 (ip), vehicle: saline",97 % of control
same,T/C,"dose: 1.0 mg/kg/injection, schedule: Q04DX003 (ip), vehicle: saline with Tween-80",107 % of control
same,T/C,"dose: 1.0 mg/kg/injection, schedule: Q04DX003 (ip), vehicle: saline",104 % of control and 111 % of control
same,T/C,"dose: 2.0 mg/kg/injection, schedule: Q01DX001 (ip), vehicle: saline with Tween-80",93 % of control
same,T/C,"dose: 2.0 mg/kg/injection, schedule: Q01DX001 (ip), vehicle: saline",100 % of control and 110 % of control
same,T/C,"dose: 2.0 mg/kg/injection, schedule: Q01DX001 (oral), vehicle: saline with Tween-80",100 % of control
same,T/C,"dose: 2.0 mg/kg/injection, schedule: Q01DX001 (oral), vehicle: saline",94 % of control
same,T/C,"dose: 2.0 mg/kg/injection, schedule: Q01DX009 (ip), vehicle: saline with Tween-80",105 % of control
same,T/C,"dose: 2.0 mg/kg/injection, schedule: Q04DX003 (ip), vehicle: saline",97 % of control and 111 % of control
same,T/C,"dose: 4.0 mg/kg/injection, schedule: Q01DX001 (ip), vehicle: saline with Tween-80",97 % of control
same,T/C,"dose: 4.0 mg/kg/injection, schedule: Q01DX001 (ip), vehicle: saline",100 % of control and 108 % of control
same,T/C,"dose: 4.0 mg/kg/injection, schedule: Q01DX001 (oral), vehicle: saline with Tween-80",107 % of control
same,T/C,"dose: 4.0 mg/kg/injection, schedule: Q01DX001 (oral), vehicle: saline",92 % of control
same,T/C,"dose: 4.0 mg/kg/injection, schedule: Q01DX009 (ip), vehicle: saline with Tween-80",101 % of control
same,T/C,"dose: 4.0 mg/kg/injection, schedule: Q04DX003 (ip), vehicle: saline with Tween-80",101 % of control
same,T/C,"dose: 4.0 mg/kg/injection, schedule: Q04DX003 (ip), vehicle: saline",97 % of control
same,T/C,"dose: 8.0 mg/kg/injection, schedule: Q01DX001 (ip), vehicle: saline with Tween-80",101 % of control
same,T/C,"dose: 8.0 mg/kg/injection, schedule: Q01DX001 (ip), vehicle: saline",99 % of control and 118 % of control
same,T/C,"dose: 8.0 mg/kg/injection, schedule: Q01DX001 (oral), vehicle: saline with Tween-80",101 % of control
same,T/C,"dose: 8.0 mg/kg/injection, schedule: Q01DX001 (oral), vehicle: saline",90 % of control
same,T/C,"dose: 8.0 mg/kg/injection, schedule: Q01DX009 (ip), vehicle: saline with Tween-80",121 % of control
same,T/C,"dose: 8.0 mg/kg/injection, schedule: Q04DX003 (ip), vehicle: saline with Tween-80",115 % of control
same,T/C,"dose: 8.0 mg/kg/injection, schedule: Q04DX003 (ip), vehicle: saline",102 % of control
same,T/C,"dose: 16.0 mg/kg/injection, schedule: Q01DX001 (ip), vehicle: saline with Tween-80",109 % of control
same,T/C,"dose: 16.0 mg/kg/injection, schedule: Q01DX001 (ip), vehicle: saline",100 % of control and 121 % of control
same,T/C,"dose: 16.0 mg/kg/injection, schedule: Q01DX001 (oral), vehicle: saline with Tween-80",102 % of control
same,T/C,"dose: 16.0 mg/kg/injection, schedule: Q01DX001 (oral), vehicle: saline",97 % of control
same,T/C,"dose: 16.0 mg/kg/injection, schedule: Q04DX003 (ip), vehicle: saline",104 % of control
same,T/C,"dose: 32.0 mg/kg/injection, schedule: Q01DX001 (ip), vehicle: saline with Tween-80",112 % of control
same,T/C,"dose: 32.0 mg/kg/injection, schedule: Q01DX001 (ip), vehicle: saline",99 % of control and 110 % of control
same,T/C,"dose: 32.0 mg/kg/injection, schedule: Q01DX001 (oral), vehicle: saline with Tween-80",101 % of control
same,T/C,"dose: 32.0 mg/kg/injection, schedule: Q01DX001 (oral), vehicle: saline",96 % of control
same,T/C,"dose: 32.0 mg/kg/injection, schedule: Q01DX009 (ip), vehicle: saline with Tween-80",155 % of control
same,T/C,"dose: 32.0 mg/kg/injection, schedule: Q01DX009 (ip), vehicle: saline",162 % of control
same,T/C,"dose: 64.0 mg/kg/injection, schedule: Q01DX001 (ip), vehicle: saline with Tween-80",111 % of control
same,T/C,"dose: 64.0 mg/kg/injection, schedule: Q01DX001 (ip), vehicle: saline",105 % of control and 116 % of control
same,T/C,"dose: 64.0 mg/kg/injection, schedule: Q01DX001 (oral), vehicle: saline with Tween-80",98 % of control
same,T/C,"dose: 64.0 mg/kg/injection, schedule: Q01DX001 (oral), vehicle: saline",100 % of control
same,T/C,"dose: 64.0 mg/kg/injection, schedule: Q01DX009 (ip), vehicle: saline with Tween-80",112 % of control
same,T/C,"dose: 64.0 mg/kg/injection, schedule: Q01DX009 (ip), vehicle: saline",183 % of control
same,T/C,"dose: 128.0 mg/kg/injection, schedule: Q01DX001 (ip), vehicle: saline with Tween-80",123 % of control
same,T/C,"dose: 128.0 mg/kg/injection, schedule: Q01DX001 (ip), vehicle: saline",114 % of control
same,T/C,"dose: 128.0 mg/kg/injection, schedule: Q01DX001 (oral), vehicle: saline with Tween-80",109 % of control
same,T/C,"dose: 128.0 mg/kg/injection, schedule: Q01DX001 (oral), vehicle: saline",93 % of control
same,T/C,"dose: 128.0 mg/kg/injection, schedule: Q01DX009 (ip), vehicle: saline",95 % of control
same,T/C,"dose: 128.0 mg/kg/injection, schedule: Q04DX003 (ip), vehicle: saline with Tween-80",176 % of control
same,T/C,"dose: 128.0 mg/kg/injection, schedule: Q04DX003 (ip), vehicle: saline",151 % of control and 159 % of control
same,T/C,"dose: 256.0 mg/kg/injection, schedule: Q01DX001 (ip), vehicle: saline",124 % of control
same,T/C,"dose: 256.0 mg/kg/injection, schedule: Q01DX001 (oral), vehicle: saline",120 % of control
same,T/C,"dose: 256.0 mg/kg/injection, schedule: Q04DX003 (ip), vehicle: saline with Tween-80",105 % of control
same,T/C,"dose: 256.0 mg/kg/injection, schedule: Q04DX003 (ip), vehicle: saline",164 % of control
same,T/C,"dose: 512.0 mg/kg/injection, schedule: Q01DX001 (ip), vehicle: saline with Tween-80",99 % of control
same,T/C,"dose: 512.0 mg/kg/injection, schedule: Q01DX001 (oral), vehicle: saline",122 % of control
same,T/C,"dose: 512.0 mg/kg/injection, schedule: Q04DX003 (ip), vehicle: saline",100 % of control
O=C1c2ccccc2C(=O)N1CCS(=O)(=O)Cl,T/C,"dose: 25.0 mg/kg/injection, schedule: Q01DX001 (ip), vehicle: carboxymethylcellulose (CMC)",104 % of control
same,T/C,"dose: 25.0 mg/kg/injection, schedule: Q01DX009 (ip), vehicle: carboxymethylcellulose (CMC)",92 % of control and 96 % of control
same,T/C,"dose: 50.0 mg/kg/injection, schedule: Q01DX001 (ip), vehicle: carboxymethylcellulose (CMC)",100 % of control
same,T/C,"dose: 50.0 mg/kg/injection, schedule: Q01DX009 (ip), vehicle: carboxymethylcellulose (CMC)",92 % of control and 102 % of control
same,T/C,"dose: 50.0 mg/kg/injection, schedule: Q04DX003 (ip), vehicle: carboxymethylcellulose (CMC)",97 % of control and 98 % of control
same,T/C,"dose: 100.0 mg/kg/injection, schedule: Q01DX001 (ip), vehicle: carboxymethylcellulose (CMC)",92 % of control and 99 % of control
same,T/C,"dose: 100.0 mg/kg/injection, schedule: Q01DX009 (ip), vehicle: carboxymethylcellulose (CMC)",92 % of control and 95 % of control and 89 % of control
same,T/C,"dose: 100.0 mg/kg/injection, schedule: Q04DX002 (ip), vehicle: carboxymethylcellulose (CMC)",93 % of control and 97 % of control
same,T/C,"dose: 100.0 mg/kg/injection, schedule: Q04DX003 (ip), vehicle: carboxymethylcellulose (CMC)",100 % of control and 113 % of control
same,T/C,"dose: 200.0 mg/kg/injection, schedule: Q01DX001 (ip), vehicle: carboxymethylcellulose (CMC)",97 % of control
same,T/C,"dose: 200.0 mg/kg/injection, schedule: Q04DX002 (ip), vehicle: carboxymethylcellulose (CMC)",97 % of control
same,T/C,"dose: 200.0 mg/kg/injection, schedule: Q04DX003 (ip), vehicle: carboxymethylcellulose (CMC)",100 % of control and 102 % of control
same,T/C,"dose: 400.0 mg/kg/injection, schedule: Q01DX001 (ip), vehicle: carboxymethylcellulose (CMC)",92 % of control
same,T/C,"dose: 400.0 mg/kg/injection, schedule: Q01DX009 (ip), vehicle: carboxymethylcellulose (CMC)",86 % of control
same,T/C,"dose: 400.0 mg/kg/injection, schedule: Q04DX002 (ip), vehicle: carboxymethylcellulose (CMC)",97 % of control and 100 % of control
